# Experimental data from ChEMBL document CHEMBL1201862, “PubChem BioAssay data set” (2004).
#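 Following 48 hours of exposure in 96-well plates, responses at five concentrations were used to interpolate endpoints linearly. The concentration for 50% growth inhibition is given as GI50.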 The source made the active and inactive calls. No stated cut-off is given here; in the data, active = GI50 up to about 1.1 µM and inactive = higher.
# Experiments:
# Test in all cases: growth of human tumour cells (NCI), 48 h
# HCC 2998 = test system: HCC 2998
# SF-539 = test system: SF-539
# OVCAR-4 = test system: OVCAR-4
# MDA-N = test system: MDA-N
# CCRF-CEM = test system: CCRF-CEM
# HOP-62 = test system: HOP-62
# KM12 = test system: KM12
# A549 = test system: A549
# Malme-3M = test system: Malme-3M
# T47D = test system: T47D
# SF-295 = test system: SF-295
# NCI-H460 = test system: NCI-H460
# MCF7 = test system: MCF7
# EKVX = test system: EKVX
# TK-10 = test system: TK-10
# Hs-578T = test system: Hs-578T
# M14 = test system: M14
# BT-549 = test system: BT-549
# SW-620 = test system: SW-620
# MDA-MB-231 = test system: MDA-MB-231
# OVCAR-3 = test system: OVCAR-3
# UACC-62 = test system: UACC-62
# NCI-H226 = test system: NCI-H226
# UACC-257 = test system: UACC-257
# NCI/ADR-RES = test system: NCI/ADR-RES
# SK-MEL-28 = test system: SK-MEL-28
# HOP-92 = test system: HOP-92
# U-251 = test system: U-251
# MDA-MB-435 = test system: MDA-MB-435
# ACHN = test system: ACHN
# SF-268 = test system: SF-268
# OVCAR-8 = test system: OVCAR-8
# IGROV-1 = test system: IGROV-1
# SK-OV-3 = test system: SK-OV-3
# COLO 205 = test system: COLO 205
# HT-29 = test system: HT-29
# HCT-116 = test system: HCT-116
# NCI-H522 = test system: NCI-H522
# A498 = test system: A498
# K562 = test system: K562
# MOLT-4 = test system: MOLT-4
# PC-3 = test system: PC-3
# LOX IMVI = test system: LOX IMVI
# SNB-19 = test system: SNB-19
# HCT-15 = test system: HCT-15
# 786-0 = test system: 786-0
# UO-31 = test system: UO-31
# SK-MEL-5 = test system: SK-MEL-5
# SK-MEL-2 = test system: SK-MEL-2
# RPMI-8226 = test system: RPMI-8226
# NCI-H23 = test system: NCI-H23
# RXF 393 = test system: RXF 393
# SNB-75 = test system: SNB-75
# DU-145 = test system: DU-145
# CAKI-1 = test system: CAKI-1
# OVCAR-5 = test system: OVCAR-5
# SR = test system: SR
compound,measurement,setting,value
CC1=CC(=O)[C@@H](O)[C@]2(C)[C@H]3[C@@]4(O)OC[C@]35[C@H]([C@@H](C)[C@H]4O)[C@@H](O)C(=O)O[C@@H]5C[C@@H]12,GI50,HCC 2998,227 nM (active)
same,GI50,SF-539,74.3 nM (active)
same,GI50,OVCAR-4,597 nM (active)
same,GI50,MDA-N,213 nM (active)
same,GI50,CCRF-CEM,261 nM (active)
same,GI50,HOP-62,210 nM (active)
same,GI50,KM12,202 nM (active)
same,GI50,A549,789 nM (active)
same,GI50,Malme-3M,43.8 nM (active)
same,GI50,T47D,225 nM (active)
same,GI50,SF-295,339 nM (active)
same,GI50,NCI-H460,214 nM (active)
same,GI50,MCF7,38.2 nM (active)
same,GI50,EKVX,771 nM (active)
same,GI50,TK-10,338 nM (active)
same,GI50,Hs-578T,195 nM (active)
same,GI50,M14,250 nM (active)
same,GI50,BT-549,318 nM (active)
same,GI50,SW-620,428 nM (active)
same,GI50,MDA-MB-231,252 nM (active)
same,GI50,OVCAR-3,247 nM (active)
same,GI50,UACC-62,312 nM (active)
same,GI50,NCI-H226,194 nM (active)
same,GI50,UACC-257,276 nM (active)
same,GI50,NCI/ADR-RES,2290 nM (inactive)
same,GI50,SK-MEL-28,156 nM (active)
same,GI50,HOP-92,327 nM (active)
same,GI50,U-251,50.9 nM (active)
same,GI50,MDA-MB-435,232 nM (active)
same,GI50,ACHN,348 nM (active)
same,GI50,SF-268,231 nM (active)
same,GI50,OVCAR-8,279 nM (active)
same,GI50,IGROV-1,106 nM (active)
same,GI50,SK-OV-3,607 nM (active)
same,GI50,COLO 205,543 nM (active)
same,GI50,HT-29,387 nM (active)
same,GI50,HCT-116,42.8 nM (active)
same,GI50,NCI-H522,181 nM (active)
same,GI50,A498,448 nM (active)
same,GI50,K562,475 nM (active)
same,GI50,MOLT-4,1550 nM (inactive)
same,GI50,PC-3,293 nM (active)
same,GI50,LOX IMVI,89.5 nM (active)
same,GI50,SNB-19,115 nM (active)
same,GI50,HCT-15,175 nM
same,GI50,786-0,349 nM (active)
same,GI50,UO-31,416 nM (active)
same,GI50,SK-MEL-5,118 nM (active)
same,GI50,SK-MEL-2,219 nM (active)
same,GI50,RPMI-8226,445 nM (active)
same,GI50,NCI-H23,192 nM (active)
same,GI50,RXF 393,391 nM (active)
same,GI50,SNB-75,70.6 nM (active)
same,GI50,DU-145,330 nM (active)
same,GI50,CAKI-1,811 nM (active)
same,GI50,OVCAR-5,706 nM (active)
same,GI50,SR,77600 nM (inactive)
